Patent US20160271153A1, “Novel Methods For The Treatment Of Cardiac Arrhythmias” (United States Government as Represented by The Department …, priority 2013, published 2016)
Changes are numbered by the printed parent chain. “Also recorded” adds a separate entry of the source.

Columns and labels:
[1] = tested on: Cav1-cSrc binding; experiment: Co-immunoprecipitation in HEK cells co-transfected with mouse cSrc and Cav1; format: cell-based; details: 10 min
Description: (§1) Immunoprecipitation (IP) of Cav1 was conducted using a magnetic IP kit from Thermo Scientific (Waltham, Mass.). Protein lysates from total LV or isolated LV myocytes (with 1000 μg total protein) from control and ACES/8 mice were incubated with 10 μg of mouse anti-Cav1 monoclonal antibodies overnight at 4° C.
(§2) The immune complex was bound to protein A/G magnetic beads and collected with a magnetic stand. Proteins co-immunoprecipitated with Cav1 were eluted and subjected to gel electrophoresis and Western blotting using the antibodies described above where appropriate. The amount of proteins co-immunoprecipitated with Cav1 was normalized to total Cav1 co-immunoprecipitated in each sample. Similar methods were used to analyze the proteins that co-immunoprecipitated with Cav3 and cSrc using antibodies against Cav3 (mouse monoclonal, BD Biosciences, San Jose, Calif.) or cSrc (rabbit monoclonal, Cell Signaling Technology, Danvers, Mass.).
(§3) Transfection of HEK cells with designated plasmids was conducted using Lipofectamine 2000 according to manufacturer's protocol.
To test if increased Cav1 SNO could result in Cav1-cSrc dissociation, human embryonic kidney (HEK) cells transfected with mouse Cav1 and cSrc were treated with 20 μM nitric oxide (NO) donor S-nitroso-N-acetyl-DL-penicillamine (SNAP) or vehicle for 10 min.

[2] = target: T1, WT mouse Cav1 (Mus musculus, UniProt P49817); experiment: Biotin-switch assay for Cav1 S-nitrosation in transfected HEK cells, WT Cav1; format: cell-based; details: SNAP 20 μM, 10 min
T1 construct: A full-length mouse Cav1 cDNA clone in pCMV-SPORT6 vector; host or cells: HEK cells
T1 sequence (P49817 1-178): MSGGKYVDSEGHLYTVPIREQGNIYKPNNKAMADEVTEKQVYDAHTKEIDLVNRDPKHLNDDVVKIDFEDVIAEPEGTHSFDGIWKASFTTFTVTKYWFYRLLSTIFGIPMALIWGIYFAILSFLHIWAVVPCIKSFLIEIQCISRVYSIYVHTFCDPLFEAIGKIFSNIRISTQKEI
Description: as §3
(§4) S-nitrosated Cav1 was detected in cells (isolated ventricular cardiomyocytes from control and ACES/8 mice or HEK cells transfected with WT Cav1 or Cav1 mutants [C156S, C143S or C133S], with or without NO donor, SNAP [20 μM, 10 min], treatment) using the methods described in Jaffrey et al., Protein S-nitrosylation: a physiological signal for neuronal nitric oxide, Nat Cell Biol. 2001, 3:193-197; and Haendeler et al., Redox regulatory and anti-apoptotic functions of thioredoxin depend on S-nitrosylation at cysteine 69, Nat Cell Biol. 2002, 4:743-749.
Cells were lysed with HENS buffer (25 mM HEPES, pH 7.7, 0.1 mM EDTA, 0.01 mM neocuproine and 1% SDS) and centrifuged at 20,000 g for 15 min. The total cell protein was incubated in 20 mM methylmethanthiosulphate (MMTS) for 20 min at 50° C. and vortexed for 5 s every 2 min. Cellular protein was precipitated with acetone.
(§5) After removing acetone, protein pellet was resuspended in HENS buffer. […] Cav1 was then immunoprecipitated from each sample using monoclonal Cav1 antibody (BD Biosciences, San Jose, Calif.), where S-nitrosated Cav1 was detected by HRP-conjugated streptavidin following gel electrophoresis and Western blotting. The amount of S-nitrosated Cav1 was quantified and normalized to total Cav1 in each sample

[3] = target: T2, C133S Cav1 (Mus musculus, UniProt P49817, C133S); experiment: Biotin-switch assay for Cav1 S-nitrosation in transfected HEK cells, C133S Cav1; format: cell-based; details: SNAP 20 μM, 10 min
T2 construct: A full-length mouse Cav1 cDNA clone in pCMV-SPORT6 vector; expressed in transfected cells; host or cells: HEK cells
T2 sequence (P49817 1-178 C133S): T1 sequence (P49817 1-178) with C133S
Description: (§6) A full-length mouse Cav1 cDNA clone in pCMV-SPORT6 vector was acquired from Thermo Scientific (MGC mouse Cav1 cDNA, clone ID 4484857). The cysteine-to-serine Cav1 mutants (C133S, C143S and C156S) were generated from this WT mouse Cav1 clone using the QuickChange II Site-Directed Mutagenesis kit (Agilent Technologies) according to the manufacturer's instructions.
as §3
as §4, with “4:743-749. […]” for “4:743-749.”
as §5, with “The amount of S-nitrosated Cav1 was quantified and normalized to total Cav1 in each sample” left out

[4] = target: T3, C143S Cav1 (Mus musculus, UniProt P49817, C143S); experiment: Biotin-switch assay for Cav1 S-nitrosation in transfected HEK cells, C143S Cav1; format: cell-based; details: SNAP 20 μM, 10 min
T3 construct: A full-length mouse Cav1 cDNA clone in pCMV-SPORT6 vector; expressed in transfected cells; host or cells: HEK cells
T3 sequence (P49817 1-178 C143S): T1 sequence (P49817 1-178) with C143S
Description: as §6, §3
as §4, with “4:743-749. […]” for “4:743-749.”
as §5, with “The amount of S-nitrosated Cav1 was quantified and normalized to total Cav1 in each sample” left out

[5] = target: T4, C156S Cav1 (Mus musculus, UniProt P49817, C156S); experiment: Biotin-switch assay for Cav1 S-nitrosation in transfected HEK cells, C156S Cav1; format: cell-based; details: SNAP 20 μM, 10 min
T4 construct: A full-length mouse Cav1 cDNA clone in pCMV-SPORT6 vector; expressed in transfected cells; host or cells: HEK cells
T4 sequence (P49817 1-178 C156S): T1 sequence (P49817 1-178) with C156S
Description: as §6, §3
as §4, with “4:743-749. […]” for “4:743-749.”
as §5, with “The amount of S-nitrosated Cav1 was quantified and normalized to total Cav1 in each sample” left out

[6] = tested on: p-cSrc at Tyr416; experiment: Western blot of LV protein lysates, p-cSrc; format: in vivo, mouse
Description: (§7) For Western blots, total protein lysates were prepared from the LV of 6 week-old WT control, ACE8/8 with and without 2 week treatment of mitochondria-targeted antioxidant (2-(2,2,6,6-Tetra-methylpiperidin-1-oxyl-4-ylamino)-2-oxoethyl)-triphenylphosphonium chloride (MitoTEMPO, see below), as well as from adult (2-4 month) Cav1−/− mice with and without 4 weeks treatment of cSrc inhibitor 1-(1,1-dimethylethyl)-[…]-1H-pyrazolo[3,4-d]pyrimidin-4-amine (PP1, see below).
(§8) In some cases, protein lysates were prepared from the LV cardiomyocytes isolated from ACE8/8 animals using described methods. 13 Total protein lysates were fractionated on 8-15% SDS-PAGE and transferred to PVDF membranes, incubated in 5% skim milk in PBS containing 0.1% Tween 20 (blocking buffer) for 1 h at room temperature, followed by overnight incubation at 4° C. with primary antibodies (rabbit monoclonal anti-cSrc, p-cSrc at Tyr416, Cx43, C-terminal Src kinase [CSK] and Tyr14 p-Cav1 antibodies from Cell Signaling, mouse monoclonal anti-Cav1 and Cav3 antibodies from BD Biosciences, rabbit monoclonal anti-eNOS, p-eNOS and nNOS antibodies from Santa Cruz).
(§9) For a loading control, the membranes were blotted with primary antibodies against glyceraldehydes-3-phosphate dehydrogenase (GAPDH) (Santa Cruz Biotech, Santa Cruz, Calif.). After washing, the membranes were incubated for 1 h at room temperature with alkaline phosphatase-conjugated secondary antibody diluted in blocking buffer, and bound antibodies were detected using a chemiluminescent alkaline phosphate substrate. Protein band intensities were quantified by densitometry (Quantity One Basic, Bio-Rad Laboratory, Hercules, Calif.) and the band densities of each protein in individual samples were normalized to that of GAPDH in the same sample.

[7] = tested on: Cx43; experiment: Western blot of LV protein lysates, Cx43; format: in vivo, mouse
Description: as §7, §8, §9

[8] = tested on: Cav1-eNOS interaction; experiment: Co-immunoprecipitation with Cav1 in ACE8/8 LV, eNOS; format: in vivo, mouse; details: ACE8/8 mice, MitoTEMPO 0.7 mg/kg/day i.p. for 2 weeks, n=6
Description: as §1, §2

[9] = tested on: Cav1-cSrc binding; experiment: Co-immunoprecipitation with Cav1 in ACE8/8 LV, cSrc; format: in vivo, mouse; details: ACE8/8 mice, MitoTEMPO 0.7 mg/kg/day i.p. for 2 weeks, n=6
Description: as §1, §2

[10] = tested on: ACE8/8 mice; details: cited from earlier work
[11] = tested on: Cav1−/− mice; experiment: LV epicardial conduction velocity measurement (72-electrode Flex-MEA); format: in vivo, mouse
Description: LV conduction velocity was measured in anesthetized WT (n=6) and Cav1−/− (with and without 4 week PP1 treatment, n=6 in each group) mice using a flexible multielectrode array (Flex-MEA, 72 electrodes) system (Multichannel systems, Reutlingen, Germany) according to manufacturer's instructions.
Mid-anterior LV epicardial electrical propagation was recorded under right-ventricular pacing (750 bpm); the color mapping of LV conduction propagation, as well as the calculation of LV conduction velocity, were carried out using Cardio 2D software (Multichannel systems, Reutlingen, Germany)

[12] = tested on: Cav1−/− mice; experiment: Programmed ventricular stimulation, ventricular arrhythmia inducibility; format: in vivo, mouse; details: 4 weeks of PP1, n=6, untreated Cav1−/− 75% inducible
Description: Surface electrocardiograms (ECG) were recorded and ventricular arrhythmia inducibility was determined in WT and Cav1^−/− with and without 4 weeks of PP1 treatment (n=4-6 in each group) using described methods under general anesthesia with isofurane as described in Berul et al., In vivo cardiac electrophysiology studies in the mouse, Circulation 1996, 94:2641-2648.
Surface electrocardiograms (ECG) were monitored and recorded with needle electrodes connected to a dual bioamplifier (PowerLab 26T, AD Instruments, Dunedin, New Zealand) as described in Yang et al., Exercise training and PI3Kα-induced electrical remodeling is independent of cellular hypertrophy and Akt signaling, J Mol Cell Cardiol. 2012, 53:532-541.
Programmed ventricular stimulation was performed with a RV epicardial electrode connected to STG1008 stimulator (Multichannel systems, Reutlingen, Germany), where eight consecutive beats were paced at 60 ms basic cycle length, followed by triple extrastimuli with incrementally deceasing cycle lengths between 20-55 ms, and inducible ventricular tachycardia was defined as >3 consecutive ventricular beats. See, Bevilacqua et al., A targeted disruption in connexin40 leads to distinct atrioventricular conduction defects, J Interv Card Electrophysiol. 2000, 4:459-467.

[13] = ACE8/8 mice, MitoTEMPO 0.7 mg/kg/day i.p. for 2 weeks
[14] = ACE8/8 mice, MitoTEMPO 0.7 mg/kg/day i.p. for 2 weeks, n=6
[15] = Cav1−/− mice, PP1 1.5 mg/kg/dose i.p. 3 times per week for 4 weeks, n=6, 1.5 mg/kg

CC(=O)NC(C(=O)O)C(C)(C)SN=O (racemic) [SNAP, S-nitroso-N-acetyl-DL-penicillamine]
interaction between cSrc and Cav1 (in words) ([1]; HEK cells co-transfected with mouse cSrc and Cav1, SNAP 20 μM, n=4): reduced | decrease of Cav1-cSrc binding compared to control ([1]; HEK cells transfected with mouse Cav1 and cSrc, SNAP 20 μM): 58% | Cav1 SNO (S-nitrosation), WT Cav1 [2]: significantly increased | Cav1 SNO (S-nitrosation), C133S Cav1 [3]: significantly increased | Cav1 SNO (S-nitrosation), C143S Cav1 [4]: significantly increased | Cav1 SNO (S-nitrosation), C156S Cav1 [5]: not

CC1(C)CC(NC(=O)C[P+](c2ccccc2)(c2ccccc2)c2ccccc2)CC(C)(C)N1[O] [MitoTEMPO, (2-(2,2,6,6-Tetra-methylpiperidin-1-oxyl-4-ylamino)-2-oxoethyl)-triphenylphosphonium chloride]
reduction of cardiac cSrc phosphorylation compared to untreated ACE8/8 animals [6, 13]: 63% | cSrc activation/phosphorylation in ACE8/8 LV (in words) [6, 14]: significantly attenuated | increase of Cx43 expression compared to untreated ACE8/8 animals [7, 13]: 1.9 fold | Cx43 downregulation in ACE8/8 LV (in words) [7, 14]: significantly attenuated | Cav1-eNOS interaction in ACE8/8 LV (in words) [8]: reversed; also recorded: significantly reduced | Cav1-cSrc binding in ACE8/8 LV (in words) [9]: reversed; also recorded: restored | elevated mitoROS in ACE8/8 hearts ([10]; MitoTEMPO 0.7 mg/kg/day i.p. for 2 weeks, to levels similar to WT controls): normalizes | Cx43 expression in ACE8/8 mice ([10]; from Sovari et al. 2013): restores | gap junction conduction in ACE8/8 mice ([10]; from Sovari et al. 2013): normalizes | ventricular arrhythmias and sudden cardiac death in ACE8/8 mice ([10]; from Sovari et al. 2013): ameliorates

Cc1ccc(-c2nn(C(C)(C)C)c3ncnc(N)c23)cc1 [PP1, 1-(1,1-dimethylethyl)-1-(4-methylphenyl)-1H-pyrazolo[3,4-d]pyrimidin-4-amine]
LV conduction velocity in Cav1−/− LV (in words) ([11]; 4 weeks of PP1 treatment): normalized | LV conduction velocity ([11]; PP1 1.5 mg/kg/dose i.p. 3 times per week for 4 weeks, n=6, untreated Cav1−/− 0.35±0.03, WT 0.50±0.09): 0.43±0.01 mm/ms | inducible for ventricular arrhythmias / VT with programmed stimulation [12]: 0% | LV p-cSrc expression / cSrc phosphorylation (in words) [6, 15]: normalized; also recorded: prevented | LV Cx43 expression / Cx43 downregulation (in words) [7, 15]: normalized; also recorded: prevented
